{
  "source": "patent US20040087559A1",
  "about": "“Methods for prevention and treatment of cancer” (priority 1999, published 2004)",
  "key": {"[1]": {"system": "renal proximal tubular cells", "settings": "primary cultures of renal proximal tubular cells; cited from earlier work"}, "[2]": {"system": "HEP 62 hepatoma cell line", "settings": "cited from earlier work"}, "[3]": {"system": "human T-lymphotrophic virus-transformed lymphocytes", "settings": "cited from earlier work"}, "[4]": {"system": "human bone cells", "settings": "human bone cells (extra-renal site); cited from earlier work"}, "[5]": {"system": "human prostate cancer cells", "settings": "cited from earlier work"}, "[6]": {"system": "normal human keratinocytes transfected with 1α-OHase cDNA", "test": "[3H]thymidine incorporation of human keratinocytes transfected with 1α-OHase cDNA", "format": "cell-based", "protocol": "FIG. 6 depicts a graph showing the effect of 25(OH)D3 concentration on the proliferative activity of normal human keratinocytes transfected with 1α-OHase cDNA. Cultured human keratinocytes transfected with a vector containing the 1α-OHase cDNA as described were incubated with 25(OH)D3 at different concentrations (1 nM, 10 nM, 100 nM) for 18 hours. [^3H]thymidine incorporation was measured as described. ●-: [^3H]thymidine incorporation of cells not transfected (“Control”); ∘-∘: [^3H]thymidine incorporation of cells transfected with vector containing 1α-OHase cDNA (“1α-OHase transfection”).\n(F) Keratinocyte transfection. Keratinocytes were maintained in MCDB-153 medium. Cells in 24-well dishes at 50%-60% confluence were transfected with […] of 1α-OHase cDNA which had been subcloned into pCR3.1 vector (INVITROGEN). Empty vector was used as a control. For each transfection, 1.0 μg was diluted in 100 μl of medium containing 6-8 μl Plus Reagent. This mixture was incubated for 15 minutes at room temperature. […] [^3H]thymidine was added to the cultures and [^3H]thymidine incorporation into the DNA (interpreted as a measure of the DNA synthetic activity, i.e. proliferation of the cells) was measured as previously described (Chen, T. C., et al., J Nutr. Biochem. 4:49-57 (1993)). […]"}, "[7]": {"target": "T1, 1α-OHase (Homo sapiens, UniProt O15528)", "T1 sequence (O15528 1-508)": "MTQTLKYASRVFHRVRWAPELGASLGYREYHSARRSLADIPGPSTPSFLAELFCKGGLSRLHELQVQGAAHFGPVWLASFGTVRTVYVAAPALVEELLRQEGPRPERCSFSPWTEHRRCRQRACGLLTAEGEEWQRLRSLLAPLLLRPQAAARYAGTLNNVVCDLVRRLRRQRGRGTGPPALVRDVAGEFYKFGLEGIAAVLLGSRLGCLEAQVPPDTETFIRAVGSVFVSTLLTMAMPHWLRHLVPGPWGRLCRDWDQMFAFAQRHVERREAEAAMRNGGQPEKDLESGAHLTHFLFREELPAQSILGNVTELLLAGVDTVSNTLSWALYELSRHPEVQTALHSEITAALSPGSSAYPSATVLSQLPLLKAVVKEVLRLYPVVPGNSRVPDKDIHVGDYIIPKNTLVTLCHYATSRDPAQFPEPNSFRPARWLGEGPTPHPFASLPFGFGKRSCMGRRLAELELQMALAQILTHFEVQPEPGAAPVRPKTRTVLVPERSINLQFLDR", "settings": "PC-3", "experimental": "(§1) (A) Cell Lines. DU 145, PC-3, and LNCaP cell lines were obtained from the American Type Culture Collection, Rockville, Md. All cell lines were tested and found to be free of Mycoplasma contamination.\n(§2) (B) Culture Conditions. Prostate cancer cell lines were cultured following several passages in vitro. Cells were routinely cultured in complete medium (RPMI 1640 medium supplemented with fetal bovine serum (10%., HyClone Labs, Logan Utah) and gentamicin (10 μg/ml, Life Technologies, Inc., Gaithersburg, Md.)). Cells were seeded in 35 mm culture dishes (Corning-Costar, Cambridge, Mass.) at 1×10^5 cells/dish in complete medium. Medium was changed to a serum-free medium (RPMI 1640 containing insulin (10 μg/ml), transferrin ( 10 μg/ml) and selenous acid (1 ng/ml)) 24 hours before adding 25(OH)D3."}, "[8]": {"target": "T1, 1α-OHase", "settings": "normal human prostate cells; clotrimazole 20 μM; 25(OH)D3 50 nM, [3H]-25(OH)D3, DPPD 10 μM, 2 h 37° C. (FIG. 3)", "experimental": "(§3) In addition, 1α-OHase activity was determined by using a radioactive metabolite, [^3H]-25(OH)D, as substrate.\nSecond passage of normal human prostate cells incubated with nonradioactive 25(OH)D3 (50 nM), [^3H]-25(OH)D3 (0.91 μCi/nmol) and 1,2-dianilinoethane (DPPD) (10 μM) at 37° C. for two hours in the absence of clotrimazole (20 μM) is shown in FIG. 2.\nSecond passage of normal human prostate cells were also incubated with nonradioactive 25(OH)D3 (50 nM), [^3H]-25(OH)D3 (0.91 μCi/nmol) and DPPD (10 μM) at 37° C. for two hours in the presence of clotrimazole (20 μM) in the presence of the cytochrome P450 inhibitor (clotrimazole)."}, "[9]": {"target": "T1, 1α-OHase", "settings": "LNCaP; clotrimazole 20 μM; 25(OH)D3 50 nM, 2 h 37° C.", "experimental": "as §1, §2"}, "[10]": {"target": "T1, 1α-OHase", "format": "cell-based", "parameters": "two primary cultures of cells, NP96-5 and BPH96-11, derived from noncancerous human prostates; endogenous in cells; host or cells: primary human prostatic epithelial cultures NP96-5 (normal prostate) and BPH96-11 (BPH)", "settings": "Human keratinocytes; clotrimazole 20 μM; 25(OH)D3 50 nM, 2 h 37° C."}, "[11]": {"target": "T1, 1α-OHase", "settings": "BPH96-11; clotrimazole 20 μM; 25(OH)D3 50 nM, 2 h 37° C.", "text": "(§4) Primary cultures of human prostatic epithelial cells were established and characterized as described by Lokeshwar et al., Cancer Res. 53:4493-4498 (1993). Prostatic epithelial cells cultured in a serum-free defined medium (Mammary Epithelial Growth Medium (MEGM), Clontech, San Diego, Calif.) express luminal epithelium specific cytokeratins (cytokeratins 8 and 18) as detected immunohistochemically using an anti-cytokeratin antibody, CAM 5.2 (Becton-Dickinson, Mountain View, Calif.). The serum-free medium contains MCDF170 supplemented with Epidermal Growth Factor, 25 ng/ml, hydrocortisone, 0.5 μg/ml, ethanolamine, 1×10^−4, insulin, 5 μg/ml, transferrin, 5 μg/ml, and whole bovine pituitary extract, 70 μg/ml.\n(§5) Prostatic cells used were at their first passage in vitro and were cultured in the serum-free RPMI medium during incubation with vitamin D metabolites. […] Histological examination of adjacent tissue sections taken from specimens used for cultures confirmed their identity as normal or BPH cultures."}, "[12]": {"target": "T1, 1α-OHase", "settings": "DU 145", "experimental": "as §1, §2"}, "[13]": {"target": "T1, 1α-OHase", "settings": "NP96-5; clotrimazole 20 μM; 25(OH)D3 50 nM, 2 h 37° C.", "text": "as §4, §5"}, "[14]": {"target": "T1, 1α-OHase", "settings": "BPH cultures; clotrimazole 20 μM; 25(OH)D3 50 nM, [3H]-25(OH)D3, DPPD 10 μM, 2 h 37° C. (FIG. 5)", "experimental": "as §3\nSecond passage of prostate cells derived from BPH cultures were incubated with nonradioactive 25(OH)D3 (50 nM), [^3H]-25(OH)D3 (0.91 μCi/nmol) and DPPD (10 μM) at 37° C. for two hours in the absence of clotrimazole (20 μM)."}, "[15]": {"settings": "clotrimazole 20 μM, 25(OH)D3 50 nM, 2 h 37° C."}},
  "note": "Entries after “also recorded” stand apart in the source; their conditions may differ. Read-outs that look alike come from different tables or passages of the source.",
  "data": [
    {"smiles": "C=C1/C(=C\\C=C2/CCC[C@]3(C)[C@@H]([C@H](C)CCCC(C)(C)O)CC[C@@H]23)C[C@@H](O)C[C@@H]1O", "note": "[1,25(OH)2D, 1,25-dihydroxyvitamin D]", "values": [
      {"measurement": "1α-OHase enzyme activity", "setting": "[1]", "result": "5.3-5.6 pmol/hr/mg protein"},
      {"measurement": "1,25(OH)2D produced", "setting": "[2]", "result": 2.3, "unit": "pmol/mg protein/hr"},
      {"measurement": "1,25(OH)2D produced", "setting": "[3]", "result": 1.6, "unit": "pmol/mg protein/hr"},
      {"measurement": "1,25(OH)2D produced", "setting": "[4]", "result": 0.068, "unit": "pmol/mg protein/hr"},
      {"measurement": "Level of 1,25(OH)2D that can significantly inhibit invasiveness", "setting": "[5]; artificial basement membrane composed of human amnions", "result": "≥ 10^−11 M"},
      {"measurement": "effect on invasiveness of DU 145 cells", "setting": "[5]; physiological levels of 1,25(OH)2D, DU 145, correlated with decrease in secreted type IV collagenase (MMP-2 and MMP-9)", "result": "significantly inhibit the invasiveness"}
    ]},
    {"smiles": "C=C1CC[C@H](O)C/C1=C/C=C1\\CCC[C@]2(C)[C@@H]([C@H](C)CCCC(C)(C)O)CC[C@@H]12", "note": "[25(OH)D, 25-hydroxyvitamin D]", "values": [
      {"measurement": "proliferative activity of transfected vs non-transfected control keratinocytes", "setting": "[6]; 25(OH)D 10^−9 to 10^−7M, 18 hours (FIG. 6)", "result": "more marked decrease in proliferative activity"},
      {"measurement": "reduction in the proliferative activity ([3H]thymidine incorporation)", "setting": "[6]; 25(OH)D at 10^−7 M, 18 hours, cells transfected with 1α-OHase gene compared to untransfected keratinocytes, p<0.01", "result": 53.7, "unit": "%"}
    ]},
    {"smiles": "Clc1ccccc1C(c1ccccc1)(c1ccccc1)n1ccnc1", "note": "[clotrimazole]", "values": [
      {"measurement": "inhibition of 1,25(OH)2D production", "setting": "[7]; clotrimazole", "result": 100, "unit": "%"},
      {"measurement": "1,25(OH)2D Produced, P-450 Inhibitor Present", "setting": "[7]; [15]", "result": "completely inhibited; also recorded: undetectable"},
      {"measurement": "1,25(OH)2D synthesis in the presence of clotrimazole (HPLC)", "setting": "[8]", "result": "undetectable"},
      {"measurement": "1,25(OH)2D Produced, P-450 Inhibitor Present", "setting": "[9]", "result": "undetectable"},
      {"measurement": "1,25(OH)2D Produced, P-450 Inhibitor Present", "setting": "[10]", "result": "completely inhibited; also recorded: undetectable"},
      {"measurement": "1,25(OH)2D Produced, P-450 Inhibitor Present", "setting": "[11]", "result": "completely inhibited; also recorded: undetectable"},
      {"measurement": "inhibition of 1,25(OH)2D production", "setting": "[12]; clotrimazole", "result": 100, "unit": "%"},
      {"measurement": "1,25(OH)2D Produced, P-450 Inhibitor Present", "setting": "[12]; [15]", "result": "completely inhibited; also recorded: undetectable"},
      {"measurement": "1,25(OH)2D Produced, P-450 Inhibitor Present", "setting": "[13]", "result": "completely inhibited; also recorded: undetectable"},
      {"measurement": "1,25(OH)2D metabolite level in the presence of clotrimazole (tritium activity, HPLC)", "setting": "[14]", "result": "less than 200 cpm"}
    ]}
  ]
}
